From ChEMBL document CHEMBL3286145, “Evaluation of the antiprion activity of 6-aminophenanthridines and related heterocycles” (Eur J Med Chem, 2014)
Active and inactive are the calls of the source. The calls are words filed in the database; no cut-off is given here.

Tests used:
[1] = tested on: Saccharomyces cerevisiae; assay: Antiprion activity against yeast SB34 prion protein [URE3] at 50 nmole by colorimetric assay
[2] = tested on: Saccharomyces cerevisiae; assay: Antiprion activity against yeast STRg6 prion protein [PSI+] at 50 nmole by colorimetric assay

COc1ccc(CCNc2nc3ccccc3c3ccccc23)cc1OC
antiprion activity (active/not active) [1]: inactive | antiprion activity (active/not active) [2]: inactive

Nc1nc2ccccc2c2ccc(F)cc12
antiprion activity (active/not active) [1]: Active | antiprion activity (active/not active) [2]: Active

Nc1cccc2c1c(N)nc1ccccc12
antiprion activity (active/not active) [1]: Active | antiprion activity (active/not active) [2]: Active

Cc1ccc2c(N)nc3ccccc3c2n1
antiprion activity (active/not active) [1]: inactive | antiprion activity (active/not active) [2]: inactive

Nc1nc2ccncc2c2ccccc12
antiprion activity (active/not active) [1]: inactive | antiprion activity (active/not active) [2]: inactive

Nc1nc2ccccc2c2c1CC=CC2
antiprion activity (active/not active) [1]: Active | antiprion activity (active/not active) [2]: Active

COc1cc(OC)c2nc(N)c3ccccc3c2c1
antiprion activity (active/not active) [1]: inactive | antiprion activity (active/not active) [2]: Active

Nc1nc2ccccc2c2ccccc12
antiprion activity (active/not active) [1]: Active | antiprion activity (active/not active) [2]: Active

Nc1nc2ccccc2c2c1CCCC2
antiprion activity (active/not active) [1]: Active | antiprion activity (active/not active) [2]: Active

CC[C@H](CO)Nc1nc2ccccc2c2ccccc12
antiprion activity (active/not active) [1]: inactive | antiprion activity (active/not active) [2]: inactive

Cc1ccc2nc(N)c3ccccc3c2c1
antiprion activity (active/not active) [1]: inactive | antiprion activity (active/not active) [2]: Active

Nc1nc2ccccc2c2cc([N+](=O)[O-])ccc12
antiprion activity (active/not active) [1]: inactive | antiprion activity (active/not active) [2]: Active

Nc1nc2ccccc2c2cnccc12
antiprion activity (active/not active) [1]: inactive | antiprion activity (active/not active) [2]: inactive

Nc1nc2ccccc2c2ccc([N+](=O)[O-])cc12
antiprion activity (active/not active) [1]: Active | antiprion activity (active/not active) [2]: Active

Nc1nc2ccccc2c2cc(F)ccc12
antiprion activity (active/not active) [1]: Active | antiprion activity (active/not active) [2]: Active

Nc1nc2ccccc2c2cccc(F)c12
antiprion activity (active/not active) [1]: Active | antiprion activity (active/not active) [2]: Active

Nc1nc2cccnc2c2ccccc12
antiprion activity (active/not active) [1]: inactive | antiprion activity (active/not active) [2]: inactive

Cc1ccc2c(N)nc3ccccc3c2c1
antiprion activity (active/not active) [1]: Active | antiprion activity (active/not active) [2]: Active

Nc1ccc2c(c1)c(N)nc1ccccc12
antiprion activity (active/not active) [1]: inactive | antiprion activity (active/not active) [2]: Active

Nc1nc2ccccc2c2cccc([N+](=O)[O-])c12
antiprion activity (active/not active) [1]: Active | antiprion activity (active/not active) [2]: Active

CN[S+]([O-])c1ccc2c(N)nc3ccccc3c2c1 (stereo not given)
antiprion activity (active/not active) [1]: inactive | antiprion activity (active/not active) [2]: inactive

[N-]=[N+]=Nc1ccc2c(c1)c(N)nc1ccccc12
antiprion activity (active/not active) [1]: Active | antiprion activity (active/not active) [2]: Active

Nc1nc2ccc(OC(F)(F)F)cc2c2ccccc12
antiprion activity (active/not active) [1]: inactive | antiprion activity (active/not active) [2]: Active

Nc1nc2ccccc2c2ccc(C(F)(F)F)cc12
antiprion activity (active/not active) [1]: Active | antiprion activity (active/not active) [2]: Active

Nc1nc2ncccc2c2ccccc12
antiprion activity (active/not active) [1]: inactive | antiprion activity (active/not active) [2]: inactive
